Several values for one entry are separate records, joined by “and”; a condition that tells them apart may be missing. Equal values may be shown once.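 Step 1: Grow cells in 96-well plates. Step 2: Expose to compound for 48 hours at 5 concentrations. Step 3: Interpolate endpoints linearly; if unreached, use highest concentration. The concentration for 50% growth inhibition is given as GI50.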 Activity calls are given as the source filed them. Cut-off read from the data, not from the text of the source: active = GI50 up to about 1.1 µM and inactive = higher.
Legend:
Test in all cases: inhibition of tumour cell growth, NCI panel, 48 h
[1] = system: 786-0
[2] = system: A498
[3] = system: A549
[4] = system: ACHN
[5] = system: CAKI-1
[6] = system: CCRF-CEM
[7] = system: COLO 205
[8] = system: DLD-1
[9] = system: DMS-114
[10] = system: DMS-273
[11] = system: EKVX
[12] = system: HCC 2998
[13] = system: HCT-116
[14] = system: HOP-18
[15] = system: HOP-62
[16] = system: HOP-92
[17] = system: HT-29
[18] = system: IGROV-1
[19] = system: K562
[20] = system: KM-20L2
[21] = system: KM12
[22] = system: LOX IMVI
[23] = system: LXFL 529
[24] = system: M14
[25] = system: M19-MEL
[26] = system: MOLT-4
[27] = system: Malme-3M
[28] = system: NCI-H226
[29] = system: NCI-H23
[30] = system: NCI-H460
[31] = system: NCI-H522
[32] = system: OVCAR-3
[33] = system: OVCAR-4
[34] = system: OVCAR-5
[35] = system: OVCAR-8
[36] = system: RPMI-8226
[37] = system: RXF 631
[38] = system: SF-295
[39] = system: SF-539
[40] = system: SK-MEL-28
[41] = system: SK-MEL-2
[42] = system: SK-MEL-5
[43] = system: SK-OV-3
[44] = system: SN12C
[45] = system: SNB-19
[46] = system: SNB-75
[47] = system: SNB-78
[48] = system: SW-620
[49] = system: TK-10
[50] = system: U-251
[51] = system: UACC-257
[52] = system: UACC-62
[53] = system: UO-31
[54] = system: XF498
[55] = system: HCT-15
[56] = system: RXF 393
[57] = system: SF-268
[58] = system: SR

CC12CC3CC(C1)CC(N=[N+]=[N-])(C3)C2
GI50 [1]: > 100 µM (inactive)
GI50 [2]: > 100 µM (inactive)
GI50 [3]: > 100 µM (inactive)
GI50 [4]: > 100 µM (inactive)
GI50 [5]: > 100 µM (inactive)
GI50 [6]: > 100 µM (inactive)
GI50 [7]: > 100 µM (inactive)
GI50 [8]: > 100 µM (inactive)
GI50 [9]: > 100 µM (inactive)
GI50 [10]: > 100 µM (inactive)
GI50 [11]: > 100 µM (inactive)
GI50 [12]: > 100 µM (inactive)
GI50 [13]: > 100 µM (inactive)
GI50 [14]: > 100 µM (inactive)
GI50 [15]: > 100 µM (inactive)
GI50 [16]: > 100 µM (inactive)
GI50 [17]: > 100 µM (inactive)
GI50 [18]: > 100 µM (inactive)
GI50 [19]: > 100 µM (inactive)
GI50 [20]: > 100 µM (inactive)
GI50 [21]: > 100 µM (inactive)
GI50 [22]: > 100 µM (inactive)
GI50 [23]: > 100 µM (inactive)
GI50 [24]: > 100 µM (inactive)
GI50 [25]: > 100 µM (inactive)
GI50 [26]: > 100 µM (inactive)
GI50 [27]: > 100 µM (inactive)
GI50 [28]: > 100 µM (inactive)
GI50 [29]: > 100 µM (inactive)
GI50 [30]: > 100 µM (inactive)
GI50 [31]: > 100 µM (inactive)
GI50 [32]: > 100 µM (inactive)
GI50 [33]: > 100 µM (inactive)
GI50 [34]: > 100 µM (inactive)
GI50 [35]: > 100 µM (inactive)
GI50 [36]: > 100 µM (inactive)
GI50 [37]: > 100 µM (inactive)
GI50 [38]: > 100 µM (inactive)
GI50 [39]: > 100 µM (inactive)
GI50 [40]: > 100 µM (inactive)
GI50 [41]: > 100 µM (inactive)
GI50 [42]: > 100 µM (inactive)
GI50 [43]: > 100 µM (inactive)
GI50 [44]: > 100 µM (inactive)
GI50 [45]: > 100 µM (inactive)
GI50 [46]: > 100 µM (inactive)
GI50 [47]: > 100 µM (inactive)
GI50 [48]: > 100 µM (inactive)
GI50 [49]: > 100 µM (inactive)
GI50 [50]: > 100 µM (inactive)
GI50 [51]: > 100 µM (inactive)
GI50 [52]: > 100 µM (inactive)
GI50 [53]: > 100 µM (inactive)
GI50 [54]: > 100 µM (inactive)

Cc1cc2c(C(C)C)c(O)c(O)c(C=O)c2c(O)c1-c1c(C)cc2c(C(C)C)c(O)c(O)c(C=O)c2c1O [GOSSYPOL]
GI50 [2]: 4.35 µM (inactive)
GI50 [3]: 2.98 µM (inactive)
GI50 [4]: 3.02 µM (inactive)
GI50 [5]: 4.14 µM (inactive)
GI50 [7]: 2.63 µM (inactive)
GI50 [8]: 3.84 µM (inactive)
GI50 [9]: 2.58 µM (inactive)
GI50 [10]: 4.4 µM (inactive)
GI50 [11]: 2.15 µM (inactive)
GI50 [55]: 3.52 µM
GI50 [14]: 3.69 µM (inactive)
GI50 [19]: 3.08 µM (inactive)
GI50 [20]: 3.33 µM (inactive)
GI50 [21]: 1.97 µM (inactive)
GI50 [23]: 2.74 µM (inactive)
GI50 [25]: 3.34 µM (inactive)
GI50 [26]: 1.91 µM (inactive)
GI50 [27]: 5.46 µM (inactive)
GI50 [32]: 3.24 µM (inactive)
GI50 [36]: 2.49 µM (inactive)
GI50 [37]: 5.32 µM (inactive)
GI50 [38]: 2.37 µM (inactive)
GI50 [40]: 4.66 µM (inactive)
GI50 [44]: 5.09 µM (inactive)
GI50 [45]: 3.86 µM (inactive)
GI50 [47]: 5.14 µM (inactive)
GI50 [48]: 4.59 µM (inactive)
GI50 [50]: 2.52 µM (inactive)
GI50 [52]: 2.36 µM (inactive)
GI50 [54]: 2.26 µM (inactive)

CC(=O)OC1COC(N2CCc3ccccc32)C(OC(C)=O)C1OC(C)=O (stereo not given)
GI50 [1]: > 100 µM (inactive)
GI50 [2]: > 100 µM (inactive)
GI50 [3]: > 100 µM (inactive)
GI50 [4]: > 100 µM (inactive)
GI50 [5]: > 100 µM (inactive)
GI50 [6]: > 100 µM (inactive)
GI50 [7]: > 100 µM (inactive)
GI50 [8]: > 100 µM (inactive)
GI50 [9]: > 91.6 µM (inactive)
GI50 [10]: > 100 µM (inactive)
GI50 [11]: > 100 µM (inactive) and > 57.1 µM (inactive)
GI50 [12]: > 100 µM (inactive)
GI50 [13]: > 100 µM (inactive)
GI50 [55]: > 100 µM
GI50 [14]: > 100 µM (inactive)
GI50 [15]: > 100 µM (inactive)
GI50 [17]: > 100 µM (inactive)
GI50 [18]: > 100 µM (inactive)
GI50 [19]: > 100 µM (inactive)
GI50 [20]: > 100 µM (inactive)
GI50 [21]: > 100 µM (inactive)
GI50 [22]: > 100 µM (inactive)
GI50 [23]: > 100 µM (inactive)
GI50 [24]: > 100 µM (inactive)
GI50 [25]: > 100 µM (inactive)
GI50 [26]: > 100 µM (inactive)
GI50 [27]: > 100 µM (inactive)
GI50 [28]: > 100 µM (inactive)
GI50 [29]: > 100 µM (inactive)
GI50 [30]: > 100 µM (inactive)
GI50 [31]: > 100 µM (inactive)
GI50 [32]: > 100 µM (inactive)
GI50 [33]: > 100 µM (inactive)
GI50 [34]: > 100 µM (inactive)
GI50 [35]: > 100 µM (inactive)
GI50 [36]: > 100 µM (inactive)
GI50 [56]: > 100 µM (inactive)
GI50 [37]: > 100 µM (inactive)
GI50 [57]: > 100 µM (inactive)
GI50 [38]: > 100 µM (inactive)
GI50 [39]: > 100 µM (inactive)
GI50 [40]: > 100 µM (inactive)
GI50 [41]: > 100 µM (inactive)
GI50 [42]: > 100 µM (inactive)
GI50 [43]: > 100 µM (inactive)
GI50 [44]: > 100 µM (inactive)
GI50 [45]: > 100 µM (inactive)
GI50 [47]: > 76.4 µM (inactive)
GI50 [58]: > 100 µM (inactive)
GI50 [48]: > 100 µM (inactive)
GI50 [49]: > 100 µM (inactive)
GI50 [50]: > 100 µM (inactive)
GI50 [51]: > 100 µM (inactive)
GI50 [52]: > 94.6 µM (inactive)
GI50 [53]: > 58.7 µM (inactive)
GI50 [54]: > 100 µM (inactive)
